# From PubChem BioAssay AID2060895 (Molecular Pharmacology Branch, DTP, NCI, 2025)
# pIC50: −log10 of the molar value.
# Test system: PDC 899932-113-R3-J6 complex spheroid viability
# Assay: Anticancer human tumor 899932-113-R3-J6-PDC patient-derived melanoma cell line growth inhibition [RAS]
# Conditions: for viability, T/C: stronger effect = lower value; for pIC50: curve of first compound
# How it was run: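 Agents were tested in combination matrices in half-log decrements from a top concentration at or near clinical Cmax (10 microM if undetermined). Targets were multi-cell spheroids of tumour lines plus HUVEC and MSC stromal cells.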
# [1] = second compound 0.000949 µM, first compound 0.0316 µM
# [2] = second compound 0.000949 µM, first compound 0.1 µM
# [3] = second compound 0.000949 µM, first compound 0.316 µM
# [4] = second compound 0.000949 µM, first compound 1 µM
# [5] = second compound 0.000949 µM, first compound 3.16 µM
# [6] = second compound 0.000949 µM, first compound 10 µM
# [7] = second compound 0.003 µM, first compound 0.0316 µM
# [8] = second compound 0.003 µM, first compound 0.1 µM
# [9] = second compound 0.003 µM, first compound 0.316 µM
# [10] = second compound 0.003 µM, first compound 1 µM
# [11] = second compound 0.003 µM, first compound 3.16 µM
# [12] = second compound 0.003 µM, first compound 10 µM
# [13] = second compound 0.00949 µM, first compound 0.0316 µM
# [14] = second compound 0.00949 µM, first compound 0.1 µM
# [15] = second compound 0.00949 µM, first compound 0.316 µM
# [16] = second compound 0.00949 µM, first compound 1 µM
# [17] = second compound 0.00949 µM, first compound 3.16 µM
# [18] = second compound 0.00949 µM, first compound 10 µM
# [19] = second compound 0.03 µM, first compound 0.0316 µM
# [20] = second compound 0.03 µM, first compound 0.1 µM
# [21] = second compound 0.03 µM, first compound 0.316 µM
# [22] = second compound 0.03 µM, first compound 1 µM
# [23] = second compound 0.03 µM, first compound 3.16 µM
# [24] = second compound 0.03 µM, first compound 10 µM
# [25] = second compound 0.0949 µM, first compound 0.0316 µM
# [26] = second compound 0.0949 µM, first compound 0.1 µM
# [27] = second compound 0.0949 µM, first compound 0.316 µM
# [28] = second compound 0.0949 µM, first compound 1 µM
# [29] = second compound 0.0949 µM, first compound 3.16 µM
# [30] = second compound 0.0949 µM, first compound 10 µM
# [31] = second compound 0.3 µM, first compound 0.0316 µM
# [32] = second compound 0.3 µM, first compound 0.1 µM
# [33] = second compound 0.3 µM, first compound 0.316 µM
# [34] = second compound 0.3 µM, first compound 1 µM
# [35] = second compound 0.3 µM, first compound 3.16 µM
# [36] = second compound 0.3 µM, first compound 10 µM
# 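Wherever viability, T/C is given: spheroids exposed to agents for seven days before readout; 100% = DMSO vehicle control wells.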
smiles,measurement,setting,value
CCN1CCN(Cc2ccc(Nc3ncc(F)c(-c4cc(F)c5nc(C)n(C(C)C)c5c4)n3)nc2)CC1,"viability, T/C",compound 0.00316 µM,104% [middle of 4 runs]
same,"viability, T/C",compound 0.01 µM,97.6% [middle of 4 runs]
same,"viability, T/C",compound 0.0316 µM,97% [middle of 4 runs]
same,"viability, T/C",compound 0.1 µM,80.7% [middle of 4 runs]
same,"viability, T/C",compound 0.316 µM,71% [middle of 4 runs]
same,"viability, T/C",compound 1 µM,30.1% [middle of 4 runs]
same,IC50,curve of compound,583 nM [middle of 4 runs]
CC1(C)CCC(Nc2ncc(C(F)(F)F)c(-c3c[nH]c4c(P(C)(C)=O)c(C#N)ccc34)n2)CN1 (stereo not drawn) + CCn1c(-c2cc(N3CCN(C)CC3)cnc2C(C)OC)c2c3cc(ccc31)-c1csc(n1)CC(NC(=O)C1CC1C)C(=O)N1CCCC(N1)C(=O)OCC(C)(C)C2,pIC50,second compound 0.000949 µM,8.48
same,pIC50,second compound 0.003 µM,> 9.02
same,pIC50,second compound 0.00949 µM,> 9.02
same,pIC50,second compound 0.03 µM,> 9.02
same,pIC50,second compound 0.0949 µM,> 9.02
same,pIC50,second compound 0.3 µM,> 9.02
same,"viability, T/C","second compound 0.000949 µM, first compound 0.000949 µM",64.6%
same,"viability, T/C","second compound 0.000949 µM, first compound 0.003 µM",51.2%
same,"viability, T/C","second compound 0.000949 µM, first compound 0.00949 µM",37.5%
same,"viability, T/C","second compound 0.000949 µM, first compound 0.03 µM",26.1%
same,"viability, T/C","second compound 0.000949 µM, first compound 0.0949 µM",15.4%
same,"viability, T/C","second compound 0.000949 µM, first compound 0.3 µM",9.12%
same,"viability, T/C","second compound 0.003 µM, first compound 0.000949 µM",35%
same,"viability, T/C","second compound 0.003 µM, first compound 0.003 µM",27.6%
same,"viability, T/C","second compound 0.003 µM, first compound 0.00949 µM",21.9%
same,"viability, T/C","second compound 0.003 µM, first compound 0.03 µM",14.6%
same,"viability, T/C","second compound 0.003 µM, first compound 0.0949 µM",13.2%
same,"viability, T/C","second compound 0.003 µM, first compound 0.3 µM",7.92%
same,"viability, T/C","second compound 0.00949 µM, first compound 0.000949 µM",3.56%
same,"viability, T/C","second compound 0.00949 µM, first compound 0.003 µM",4.08%
same,"viability, T/C","second compound 0.00949 µM, first compound 0.00949 µM",4.01%
same,"viability, T/C","second compound 0.00949 µM, first compound 0.03 µM",4.17%
same,"viability, T/C","second compound 0.00949 µM, first compound 0.0949 µM",5.08%
same,"viability, T/C","second compound 0.00949 µM, first compound 0.3 µM",5.25%
same,"viability, T/C","second compound 0.03 µM, first compound 0.000949 µM",2.41%
same,"viability, T/C","second compound 0.03 µM, first compound 0.003 µM",2.78%
same,"viability, T/C","second compound 0.03 µM, first compound 0.00949 µM",2.34%
same,"viability, T/C","second compound 0.03 µM, first compound 0.03 µM",2.28%
same,"viability, T/C","second compound 0.03 µM, first compound 0.0949 µM",2.45%
same,"viability, T/C","second compound 0.03 µM, first compound 0.3 µM",2.64%
same,"viability, T/C","second compound 0.0949 µM, first compound 0.000949 µM",2.17%
same,"viability, T/C","second compound 0.0949 µM, first compound 0.003 µM",2.21%
same,"viability, T/C","second compound 0.0949 µM, first compound 0.00949 µM",2.67%
same,"viability, T/C","second compound 0.0949 µM, first compound 0.03 µM",2.13%
same,"viability, T/C","second compound 0.0949 µM, first compound 0.0949 µM",1.61%
same,"viability, T/C","second compound 0.0949 µM, first compound 0.3 µM",2.1%
same,"viability, T/C","second compound 0.3 µM, first compound 0.000949 µM",2.15%
same,"viability, T/C","second compound 0.3 µM, first compound 0.003 µM",1.93%
same,"viability, T/C","second compound 0.3 µM, first compound 0.00949 µM",1.68%
same,"viability, T/C","second compound 0.3 µM, first compound 0.03 µM",1.68%
same,"viability, T/C","second compound 0.3 µM, first compound 0.0949 µM",1.86%
same,"viability, T/C","second compound 0.3 µM, first compound 0.3 µM",1.52%
CCC(CC)c1cc(NC2CCC(N)C2)n2nccc2n1 (stereo not drawn) + CCn1c(-c2cc(N3CCN(C)CC3)cnc2C(C)OC)c2c3cc(ccc31)-c1csc(n1)CC(NC(=O)C1CC1C)C(=O)N1CCCC(N1)C(=O)OCC(C)(C)C2,pIC50,second compound 0.000949 µM,5.97
same,pIC50,second compound 0.003 µM,> 7.50
same,pIC50,second compound 0.00949 µM,> 7.50
same,pIC50,second compound 0.03 µM,> 7.50
same,pIC50,second compound 0.0949 µM,> 7.50
same,pIC50,second compound 0.3 µM,> 7.50
same,"viability, T/C",[1],69.1%
same,"viability, T/C",[2],73.5%
same,"viability, T/C",[3],64.5%
same,"viability, T/C",[4],53.2%
same,"viability, T/C",[5],0.22%
same,"viability, T/C",[6],0.15%
same,"viability, T/C",[7],28.8%
same,"viability, T/C",[8],28.2%
same,"viability, T/C",[9],26.5%
same,"viability, T/C",[10],16.3%
same,"viability, T/C",[11],0.58%
same,"viability, T/C",[12],0.66%
same,"viability, T/C",[13],3.22%
same,"viability, T/C",[14],4.26%
same,"viability, T/C",[15],3.48%
same,"viability, T/C",[16],4.75%
same,"viability, T/C",[17],0.1%
same,"viability, T/C",[18],0.59%
same,"viability, T/C",[19],3.14%
same,"viability, T/C",[20],3.12%
same,"viability, T/C",[21],3.99%
same,"viability, T/C",[22],2.67%
same,"viability, T/C",[23],0.09%
same,"viability, T/C",[24],0.83%
same,"viability, T/C",[25],2.55%
same,"viability, T/C",[26],2.58%
same,"viability, T/C",[27],2.46%
same,"viability, T/C",[28],1.27%
same,"viability, T/C",[29],0.74%
same,"viability, T/C",[30],0.84%
same,"viability, T/C",[31],2.43%
same,"viability, T/C",[32],3.04%
same,"viability, T/C",[33],2.55%
same,"viability, T/C",[34],1.37%
same,"viability, T/C",[35],0.48%
same,"viability, T/C",[36],0.89%
CC(C)NCC(C(=O)N1CCN(c2ncnc3c2C(C)CC3O)CC1)c1ccc(Cl)cc1 (stereo not drawn) + CCn1c(-c2cccnc2C(C)OC)c2c3cc(ccc31)N1CCOC(CC(NC(=O)C(C(C)C)N(C)C(=O)C3(F)CCN(C(=O)C#CC(C)(C)N(C)C)CC3)C(=O)N3CCCC(N3)C(=O)OCC(C)(C)C2)C1,pIC50,second compound 0.000949 µM,5.26
same,pIC50,second compound 0.003 µM,5.22
same,pIC50,second compound 0.00949 µM,5.25
same,pIC50,second compound 0.03 µM,5.31
same,pIC50,second compound 0.0949 µM,5.41
same,pIC50,second compound 0.3 µM,5.58
same,"viability, T/C",[1],105%
same,"viability, T/C",[2],97.3%
same,"viability, T/C",[3],97%
same,"viability, T/C",[4],84.2%
same,"viability, T/C",[5],62.5%
same,"viability, T/C",[6],36.5%
same,"viability, T/C",[7],112%
same,"viability, T/C",[8],106%
same,"viability, T/C",[9],97.3%
same,"viability, T/C",[10],80%
same,"viability, T/C",[11],68.7%
same,"viability, T/C",[12],36.5%
same,"viability, T/C",[13],111%
same,"viability, T/C",[14],107%
same,"viability, T/C",[15],96%
same,"viability, T/C",[16],90.7%
same,"viability, T/C",[17],59.2%
same,"viability, T/C",[18],39%
same,"viability, T/C",[19],99.3%
same,"viability, T/C",[20],105%
same,"viability, T/C",[21],96.2%
same,"viability, T/C",[22],80.8%
same,"viability, T/C",[23],58%
same,"viability, T/C",[24],38%
same,"viability, T/C",[25],97.3%
same,"viability, T/C",[26],97.8%
same,"viability, T/C",[27],88%
same,"viability, T/C",[28],71.4%
same,"viability, T/C",[29],53.8%
same,"viability, T/C",[30],36.7%
same,"viability, T/C",[31],89.1%
same,"viability, T/C",[32],84.8%
same,"viability, T/C",[33],74.3%
same,"viability, T/C",[34],60.2%
same,"viability, T/C",[35],49.5%
same,"viability, T/C",[36],32.6%
